# What was measured:
# [1] = tested on: CF-1 strain mice; experiment: maximal electroshock (MES) assay in mice; assay type: in vivo; conditions: IV
# Excerpt: Additionally, a preliminary indicator of in vivo CNS activity related to anticonvulsant activity and potential neuroprotection, is a maximal electroshock (MES) assay in CF-1 strain mice (20-25 g) performed with corneal electrodes by conventional methods as described previously (Krall, et al., Epilepsia, 1988;19:409-428).
# MES (IV) Data for Compound 1 from Table 1 [drawing 23]
# [2] = molecular target: kainate site (non-NMDA receptor); experiment: Kainate site (non-NMDA receptor) binding (London and Coyle), Table 1 'KA'
# [3] = molecular target: AMPA receptors; experiment: AMPA receptor binding (Honore et al.), Table 1
smiles,measurement,setting,value
Cc1c([N+](=O)[O-])cc2[nH]c(=O)c(=O)[nH]c2c1CN(C)C [Compound 1],Ataxic (%),"[1]; 3 min, 10 mg/kg",0%
same,Protected (%),"[1]; 3 min, 10 mg/kg",40%
same,Ataxic (%),"[1]; 3 min, 30 mg/kg",20%
same,Protected (%),"[1]; 3 min, 30 mg/kg",60%
same,Ataxic (%),"[1]; 30 min, 10 mg/kg",40%
same,Protected (%),"[1]; 30 min, 10 mg/kg",60%
same,Ataxic (%),"[1]; 30 min, 30 mg/kg",40%
same,Protected (%),"[1]; 30 min, 30 mg/kg",80%
same,IC50 KA,[2],4.483 µM
same,IC50,[3],1.5 µM
CCN(CC)Cc1c(C)c([N+](=O)[O-])cc2[nH]c(=O)c(=O)[nH]c12 [Compound 2],IC50 KA,[2],6.647 µM
same,IC50,[3],0.689 µM
CCCN(CCC)Cc1c(C)c([N+](=O)[O-])cc2[nH]c(=O)c(=O)[nH]c12 [Compound 3],IC50 KA,[2],24.93 µM
same,IC50,[3],1.63 µM
CCCCN(CCCC)Cc1c(C)c([N+](=O)[O-])cc2[nH]c(=O)c(=O)[nH]c12 [Compound 4],IC50 KA,[2],20.50 µM
same,IC50,[3],4.64 µM
Cc1c([N+](=O)[O-])cc2[nH]c(=O)c(=O)[nH]c2c1CNC1CCCCC1 [Compound 5],IC50 KA,[2],5.128 µM
same,IC50,[3],1.26 µM
Cc1c([N+](=O)[O-])cc2[nH]c(=O)c(=O)[nH]c2c1CN(C)C1CCCCC1 [Compound 6],IC50 KA,[2],5.331 µM
same,IC50,[3],3.23 µM
Cc1c([N+](=O)[O-])cc2[nH]c(=O)c(=O)[nH]c2c1CN(C)C(C)C [Compound 7],IC50 KA,[2],8.23 µM
same,IC50,[3],1.15 µM
